Tested on: P12-Ichikawa
Assay: cell viability relative to DMSO control; higher = less cytotoxic
Conditions: 48 h
Procedure, shortened: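 Viability, reported as a per-plate percentage of DMSO wells with cell-free wells as background, came from CellTiter-Glo One luminescence. Reading took place after 48 h at 37°C. Before that, NOMO1 or SEM (500 cells/well) or P12-Ichikawa (1000 cells/well) leukemia cells, adapted for at least four passages in each medium, were seeded in 1536-well plates (5 μl) and pin-dosed with library compounds in DMSO, 47 μM to 0.79 nM over 11 threefold points.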

[1] = HPLM + 10% dialyzed FBS, 0.000781 µM
[2] = HPLM + 10% dialyzed FBS, 0.00234 µM
[3] = HPLM + 10% dialyzed FBS, 0.00702 µM
[4] = HPLM + 10% dialyzed FBS, 0.0211 µM
[5] = HPLM + 10% dialyzed FBS, 0.0632 µM
[6] = HPLM + 10% dialyzed FBS, 0.19 µM
[7] = HPLM + 10% dialyzed FBS, 0.569 µM
[8] = HPLM + 10% dialyzed FBS, 1.71 µM
[9] = HPLM + 10% dialyzed FBS, 5.12 µM
[10] = HPLM + 10% dialyzed FBS, 15.4 µM
[11] = HPLM + 10% dialyzed FBS, 46.1 µM
[12] = RPMI 5 mM glucose + 10% FBS, 0.000781 µM
[13] = RPMI 5 mM glucose + 10% FBS, 0.00234 µM
[14] = RPMI 5 mM glucose + 10% FBS, 0.00702 µM
[15] = RPMI 5 mM glucose + 10% FBS, 0.0211 µM
[16] = RPMI 5 mM glucose + 10% FBS, 0.0632 µM
[17] = RPMI 5 mM glucose + 10% FBS, 0.19 µM
[18] = RPMI 5 mM glucose + 10% FBS, 0.569 µM
[19] = RPMI 5 mM glucose + 10% FBS, 1.71 µM
[20] = RPMI 5 mM glucose + 10% FBS, 5.12 µM
[21] = RPMI 5 mM glucose + 10% FBS, 15.4 µM
[22] = RPMI 5 mM glucose + 10% FBS, 46.1 µM
[23] = RPMI 5 mM glucose + 10% dialyzed FBS, 0.000781 µM
[24] = RPMI 5 mM glucose + 10% dialyzed FBS, 0.00234 µM
[25] = RPMI 5 mM glucose + 10% dialyzed FBS, 0.00702 µM
[26] = RPMI 5 mM glucose + 10% dialyzed FBS, 0.0211 µM
[27] = RPMI 5 mM glucose + 10% dialyzed FBS, 0.0632 µM
[28] = RPMI 5 mM glucose + 10% dialyzed FBS, 0.19 µM
[29] = RPMI 5 mM glucose + 10% dialyzed FBS, 0.569 µM
[30] = RPMI 5 mM glucose + 10% dialyzed FBS, 1.71 µM
[31] = RPMI 5 mM glucose + 10% dialyzed FBS, 5.12 µM
[32] = RPMI 5 mM glucose + 10% dialyzed FBS, 15.4 µM
[33] = RPMI 5 mM glucose + 10% dialyzed FBS, 46.1 µM

Compound | cell viability [1] [%] | cell viability [2] [%] | cell viability [3] [%] | cell viability [4] [%] | cell viability [5] [%] | cell viability [6] [%] | cell viability [7] [%] | cell viability [8] [%] | cell viability [9] [%] | cell viability [10] [%] | cell viability [11] [%] | cell viability [12] [%] | cell viability [13] [%] | cell viability [14] [%] | cell viability [15] [%] | cell viability [16] [%] | cell viability [17] [%] | cell viability [18] [%] | cell viability [19] [%] | cell viability [20] [%] | cell viability [21] [%] | cell viability [22] [%] | cell viability [23] [%] | cell viability [24] [%] | cell viability [25] [%] | cell viability [26] [%] | cell viability [27] [%] | cell viability [28] [%] | cell viability [29] [%] | cell viability [30] [%] | cell viability [31] [%] | cell viability [32] [%] | cell viability [33] [%]
Clc1ccc(C(c2ccc(Cl)cc2)[n+]2ccn(CC(OCc3ccc(Cl)cc3Cl)c3ccc(Cl)cc3Cl)c2)cc1 (centres undefined) | 115 | 112 | 109 | 104 | 113 | 117 | 110 | 98.1 | 102 | 70.6 | 47.1 | 129 | 113 | 115 | 110 | 115 | 115 | 113 | 100 | 105 | 70.2 | 21 |  |  |  |  |  |  |  |  |  |  | 
CN(C)C(=O)[C@H](O)[C@H](Cc1ccccc1)NC(=O)c1cc2cc(Cl)ccc2[nH]1 | 98.8 | 110 | 111 | 114 | 119 | 115 | 122 | 127 | 119 | 80.3 | 43.4 | 95.3 | 112 | 109 | 117 | 119 | 130 | 130 | 130 | 113 | 68.6 | 51.5 | 99.5 | 118 | 118 | 119 | 121 | 131 | 125 | 133 | 127 | 94 | 70
CCC[C@H](Nc1nc(-c2ccc(NC(=O)NCC)c(OC)c2)ncc1C)c1cccnc1 | 114 | 115 | 117 | 120 | 22.3 | 11.4 | 9.4 | 8.46 | 7.94 | 7.62 | 6.68 | 125 | 137 | 123 | 136 | 21.8 | 12.7 | 11.7 | 8.52 | 8.89 | 7.34 | 6.34 | 120 | 125 | 122 | 124 | 29.6 | 18.1 | 17.2 | 10.4 | 11 | 10.1 | 7.87
N#Cc1cc(NC(=O)Nc2nnc(-c3ccncc3)s2)ccc1-c1cn[nH]c1 | 117 | 125 | 122 | 125 | 120 | 116 | 122 | 115 | 113 | 106 | 110 | 120 | 127 | 125 | 126 | 110 | 116 | 119 | 113 | 119 | 112 | 109 | 121 | 126 | 117 | 124 | 126 | 126 | 128 | 124 | 115 | 112 | 105
Clc1ccc(CCC(Cn2ccnc2)Sc2c(Cl)cccc2Cl)cc1 (centres undefined) | 92.8 | 92.5 | 96 | 90.2 | 93.9 | 102 | 101 | 94.7 | 91.9 | 91.2 | 91.5 | 90 | 94.6 | 96 | 103 | 99.8 | 94.8 | 87.8 | 96 | 91.1 | 91.9 | 63.2 | 81.1 | 72.8 | 84.4 | 95.1 | 84.6 | 86.4 | 90.1 | 83.7 | 89.1 | 90.1 | 64.7
CC(C)(Sc1cc(C(C)(C)C)c(O)c(C(C)(C)C)c1)Sc1cc(C(C)(C)C)c(O)c(C(C)(C)C)c1 | 88.5 | 84.4 | 90 | 96.2 | 94.1 | 91 | 95.7 | 89.4 | 97 | 99.7 | 99.9 | 80.2 | 77.9 | 87.2 | 85.6 | 83.9 | 92.8 | 93.7 | 85.4 | 79.2 | 92.8 | 92.8 | 79.2 | 85.3 | 82.3 | 85.6 | 87.8 | 87.6 | 84.7 | 87.2 | 81.3 | 81.2 | 88.4
CCOc1ccccc1N/N=C1/C(=O)N(c2nc(-c3ccccc3)cs2)N=C1C | 111 | 114 | 114 | 115 | 114 | 108 | 104 | 101 | 103 | 86.4 | 67 | 115 | 108 | 108 | 121 | 116 | 120 | 112 | 106 | 114 | 98.9 | 97 | 113 | 118 | 110 | 116 | 113 | 108 | 109 | 105 | 106 | 94.6 | 94.6
Cc1nnc(C(C)C)n1[C@@H]1C[C@H]2CC[C@@H](C1)N2CC[C@H](NC(=O)C1CCC(F)(F)CC1)c1ccccc1 | 88.3 | 99.8 | 107 | 111 | 105 | 102 | 113 | 110 | 101 | 89.1 | 63.8 | 85 | 90.2 | 94.3 | 100 | 95.9 | 103 | 107 | 99.4 | 104 | 92 | 59.2 | 71.4 | 96 | 89.1 | 101 | 94.5 | 105 | 97.4 | 103 | 101 | 81.1 | 48.3
OC[C@H]1OC(O)C[C@@H](O)[C@@H]1O (some centres undefined) | 122 | 124 | 114 | 118 | 121 | 120 | 115 | 119 | 121 | 118 | 107 | 119 | 122 | 124 | 115 | 134 | 119 | 131 | 131 | 120 | 116 | 112 | 107 | 125 | 119 | 117 | 116 | 116 | 119 | 123 | 124 | 122 | 110
O=C(Nc1ccccc1)Nc1ccc(-c2ccc(C(=O)[C@@H]3CCC[C@H]3C(=O)O)cc2)cc1 | 105 | 102 | 117 | 113 | 113 | 122 | 96.7 | 105 | 90.8 | 87 | 79 | 110 | 117 | 100 | 113 | 116 | 114 | 118 | 102 | 92.8 | 73 | 86.2 | 123 | 121 | 116 | 104 | 122 | 122 | 115 | 114 | 89.6 | 83.9 | 83.1
CC1=CC/2=C(C=C1C)N(C[C@@H](O)[C@@H](O)[C@@H](O)CO)C/3=N/C(=O)NC(=O)C3=N2 | 118 | 123 | 117 | 116 | 120 | 129 | 113 | 109 | 115 | 103 | 107 |  |  |  |  |  |  |  |  |  |  |  | 122 | 122 | 121 | 132 | 123 | 121 | 118 | 113 | 108 | 105 | 102
Cc1cc(/C=c2/sc3nc4ccccc4n3c2=O)c(C)n1-c1ccccc1 | 121 | 127 | 123 | 119 | 123 | 119 | 128 | 125 | 122 | 113 | 112 |  |  |  |  |  |  |  |  |  |  |  | 110 | 126 | 116 | 132 | 126 | 121 | 124 | 124 | 105 | 112 | 120
CN1CCC(CNc2ccc3ncc(-c4cccc(OC(F)(F)F)c4)n3n2)CC1 | 108 | 110 | 97.3 | 109 | 105 | 103 | 108 | 102 | 97.4 | 92.8 | 5.65 | 100 | 101 | 89.4 | 102 | 100 | 102 | 99.8 | 94.7 | 89.1 | 79.7 | 4.48 | 92.7 | 92.9 | 92.2 | 95.4 | 94.7 | 92.4 | 101 | 92.3 | 85.9 | 84.3 | 4.77
CC(C)[C@H](O)C(=O)N[C@@H](C)C(=O)N[C@@H]1C(=O)N(C)CCc2ccccc21 | 112 | 114 | 111 | 112 | 115 | 108 | 102 | 90.7 | 110 | 91.4 | 90.7 | 114 | 123 | 122 | 109 | 119 | 116 | 104 | 113 | 106 | 97.7 | 105 | 116 | 113 | 113 | 105 | 96.6 | 106 | 102 | 99.6 | 94.6 | 98.8 | 92.7
C/C=C(\C)C(=O)N[C@@H](c1ccccc1)[C@@H](O)C(=O)O[C@H]1C[C@@]2(O)[C@@H](OC(=O)c3ccccc3)[C@@H]3[C@]4(OC(C)=O)CO[C@@H]4C[C@H](O)[C@@]3(C)C(=O)[C@H](OC(C)=O)C(=C1C)C2(C)C | 45.3 | 23.3 | 25.7 | 15.9 | 22.2 | 19 | 21.4 | 20.3 | 19 | 19 | 14.2 | 46.4 | 20.9 | 25.7 | 13.8 | 15.1 | 17.2 | 16.8 | 16.6 | 13 | 13 | 10.6 | 49.5 | 27.8 | 32.8 | 23 | 23 | 23.4 | 30.4 | 28.5 | 24.6 | 24.8 | 21.1
NC(=O)c1nnn(Cc2cc(Cl)c(C(=O)c3ccc(Cl)cc3)c(Cl)c2)c1N |  |  |  |  |  |  |  |  |  |  |  | 122 | 137 | 122 | 130 | 128 | 128 | 136 | 120 | 120 | 122 | 70.9 | 122 | 128 | 122 | 134 | 123 | 119 | 131 | 121 | 109 | 118 | 68

Reference: the supplement of paper PMC11451515
